The record followed here is the OligoGym collection.

This series addresses HBV. Conditions: ASO.

“And” between values parts separate entries of the source, which are not always exact repeats. Identical values can stand only once. HELM strings list units from the 5' end as sugar, base in round brackets, then linkage (d deoxyribose, r ribose, m 2'-O-methyl, p phosphodiester). Methylation of C is not given here. [moe] = 2'-O-(2-methoxyethyl) (MOE); [cEt] = constrained ethyl (cEt); [sp] = phosphorothioate linkage

On to “RNA1{[moe](G)[sp].[moe](T)[sp].[moe](G)[sp].d(A)[sp].d(A)[sp].d(G)[sp].d(C)[sp].d(G)[sp].d(A)[sp].d(A)[sp].d(G)[sp].d(T)[sp].d(G)[sp].[cEt](C)[sp].[cEt](A)[sp].[cEt](C)}$$$$V2.0”, for which the target mRNA inhibition is 0% (HepG2, 0.0092593 µM); 32% (HepG2, 0.0277778 µM); 74% and 84% (HepG2, 0.07 µM); 68% (HepG2, 0.0833333 µM); 86% (HepG2, 0.25 µM).

For the substance “RNA1{[moe](G)[sp].[moe](T)[sp].d(T)[sp].d(C)[sp].d(C)[sp].d(G)[sp].d(C)[sp].d(A)[sp].d(G)[sp].d(T)[sp].d(A)[sp].[moe](T)[sp].[moe](G)[sp].[moe](G)[sp].[moe](A)[sp].[moe](T)[sp].[moe](C)}$$$$V2.0”, the target mRNA inhibition (HepG2, 0.07 µM) is 45% and 58%.

Turning to “RNA1{[moe](T)[sp].[cEt](A)[sp].[cEt](G)[sp].d(G)[sp].d(C)[sp].d(A)[sp].d(G)[sp].d(A)[sp].d(G)[sp].d(G)[sp].d(T)[sp].d(G)[sp].d(A)[sp].[cEt](A)[sp].[cEt](A)[sp].[moe](A)}$$$$V2.0”, the target mRNA inhibition (HepG2, 0.07 µM) is 31% and 28%.

Regarding “RNA1{[moe](T)[sp].[cEt](C)[sp].[cEt](A)[sp].d(G)[sp].d(C)[sp].d(A)[sp].d(A)[sp].d(A)[sp].d(C)[sp].d(A)[sp].d(C)[sp].d(T)[sp].d(T)[sp].[cEt](G)[sp].[cEt](G)[sp].[moe](C)}$$$$V2.0”, the target mRNA inhibition (HepG2, 0.07 µM) is 67% and 71%.

On to “RNA1{[moe](T)[sp].[cEt](C)[sp].d(C)[sp].d(G)[sp].d(C)[sp].d(A)[sp].d(G)[sp].d(T)[sp].d(A)[sp].d(T)[sp].d(G)[sp].d(G)[sp].[cEt](A)[sp].[moe](T)[sp].[cEt](C)[sp].[moe](G)}$$$$V2.0”, for which the target mRNA inhibition (HepG2, 0.0092593 µM) worked out at 33%; the target mRNA inhibition (HepG2, 0.0277778 µM) was determined as 56%; the target mRNA inhibition (HepG2, 0.07 µM) was 85% and 81%; the target mRNA inhibition (HepG2, 0.0833333 µM) is 80%; the target mRNA inhibition (HepG2, 0.25 µM) amounted to 92%.

As to “RNA1{[moe](T)[sp].[cEt](G)[sp].[cEt](A)[sp].d(G)[sp].d(G)[sp].d(C)[sp].d(A)[sp].d(T)[sp].d(A)[sp].d(G)[sp].d(C)[sp].d(A)[sp].d(G)[sp].[cEt](C)[sp].[cEt](A)[sp].[moe](G)}$$$$V2.0”, the target mRNA inhibition (HepG2, 0.07 µM) is 68% and 61%.

In the case of “RNA1{[moe](T)[sp].[moe](C)[sp].[moe](C)[sp].[moe](G)[sp].[moe](C)[sp].d(A)[sp].d(G)[sp].d(T)[sp].d(A)[sp].d(T)[sp].d(G)[sp].d(G)[sp].d(A)[sp].d(T)[sp].[moe](C)[sp].[moe](G)[sp].[moe](G)}$$$$V2.0”, the target mRNA inhibition (HepG2, 0.07 µM) is 77% and 68%.

In the case of “RNA1{[moe](T)[sp].[moe](C)[sp].[moe](C)[sp].[moe](G)[sp].d(C)[sp].d(A)[sp].d(G)[sp].d(T)[sp].d(A)[sp].d(T)[sp].d(G)[sp].d(G)[sp].d(A)[sp].[moe](T)[sp].[moe](C)[sp].[moe](G)}$$$$V2.0”, the target mRNA inhibition (HepG2, 0.07 µM) is 71% and 73%.

For “RNA1{[moe](T)[sp].[moe](C)[sp].[moe](C)[sp].d(A)[sp].d(C)[sp].d(C)[sp].d(A)[sp].d(C)[sp].d(G)[sp].d(A)[sp].d(G)[sp].d(T)[sp].d(C)[sp].[cEt](T)[sp].[cEt](A)[sp].[cEt](G)}$$$$V2.0”, for the setting “HepG2, 0.07 µM”, the target mRNA inhibition is 42% and 67%.

In the case of “RNA1{[moe](T)[sp].[moe](C)[sp].[moe](C)[sp].d(G)[sp].d(C)[sp].d(A)[sp].d(G)[sp].d(T)[sp].d(A)[sp].d(T)[sp].d(G)[sp].d(G)[sp].[moe](A)[sp].[moe](T)[sp].[moe](C)[sp].[moe](G)[sp].[moe](G)}$$$$V2.0”, the target mRNA inhibition (HepG2, 0.07 µM) was 68% and 58%.

Take “RNA1{[moe](T)[sp].[moe](C)[sp].[moe](C)[sp].d(G)[sp].d(C)[sp].d(A)[sp].d(G)[sp].d(T)[sp].d(A)[sp].d(T)[sp].d(G)[sp].d(G)[sp].d(A)[sp].[cEt](T)[sp].[cEt](C)[sp].[cEt](G)}$$$$V2.0”: for the setting “HepG2, 0.07 µM”, the target mRNA inhibition was 73% and 53%.

In the case of “RNA1{[moe](T)[sp].[moe](G)[sp].[moe](A)[sp].[cEt](G)[sp].[cEt](G)[sp].d(C)[sp].d(A)[sp].d(T)[sp].d(A)[sp].d(G)[sp].d(C)[sp].d(A)[sp].[cEt](G)[sp].[cEt](C)[sp].[moe](A)[sp].[moe](G)[sp].[moe](G)}$$$$V2.0”, the target mRNA inhibition runs as follows: (HepG2, 0.009375 µM) 23%; (HepG2, 0.01875 µM) 4%; (HepG2, 0.0375 µM) 29%; (HepG2, 0.075 µM) 31%; (HepG2, 0.15 µM) 36%; (HepG2, 0.3 µM) 56%.

On to “RNA1{[moe](T)[sp].[moe](G)[sp].[moe](A)[sp].[cEt](G)[sp].d(G)[sp].d(C)[sp].d(A)[sp].d(T)[sp].d(A)[sp].d(G)[sp].d(C)[sp].d(A)[sp].d(G)[sp].[cEt](C)[sp].[moe](A)[sp].[moe](G)[sp].[moe](G)}$$$$V2.0”, for which the target mRNA inhibition (HepG2, 0.009375 µM) stood at 6%; the target mRNA inhibition (HepG2, 0.01875 µM) came out at 31%; the target mRNA inhibition (HepG2, 0.0375 µM) amounted to 42%; the target mRNA inhibition (HepG2, 0.075 µM) came to 58%; the target mRNA inhibition (HepG2, 0.15 µM) stood at 66%; the target mRNA inhibition (HepG2, 0.3 µM) came out at 82%.

Take “RNA1{[moe](T)[sp].[moe](G)[sp].[moe](A)[sp].[moe](A)[sp].[moe](G)[sp].[moe](C)[sp].d(G)[sp].d(A)[sp].d(A)[sp].d(G)[sp].d(T)[sp].d(G)[sp].d(C)[sp].d(A)[sp].d(C)[sp].[moe](A)[sp].[moe](C)}$$$$V2.0”: the target mRNA inhibition (HepG2, 0.07 µM) was 84% and 64%.

“RNA1{[moe](T)[sp].[moe](G)[sp].[moe](A)[sp].d(A)[sp].d(G)[sp].d(C)[sp].d(G)[sp].d(A)[sp].d(A)[sp].d(G)[sp].d(T)[sp].d(G)[sp].d(C)[sp].[cEt](A)[sp].[cEt](C)[sp].[cEt](A)}$$$$V2.0”: where the note is “HepG2, 0.07 µM”, the target mRNA inhibition was 67% and 70%.

In the case of “RNA1{[moe](T)[sp].[moe](G)[sp].[moe](A)[sp].d(G)[sp].d(G)[sp].d(C)[sp].d(A)[sp].d(T)[sp].d(A)[sp].d(G)[sp].d(C)[sp].d(A)[sp].[moe](G)[sp].[moe](C)[sp].[moe](A)[sp].[moe](G)[sp].[moe](G)}$$$$V2.0”, the target mRNA inhibition (HepG2, 0.07 µM) is 70% and 56%.

As to “RNA1{[moe](T)[sp].[moe](G)[sp].[moe](C)[sp].d(A)[sp].d(G)[sp].d(A)[sp].d(G)[sp].d(G)[sp].d(T)[sp].d(G)[sp].d(A)[sp].d(A)[sp].[moe](G)[sp].[moe](C)[sp].[moe](G)[sp].[moe](A)}$$$$V2.0”, the target mRNA inhibition (HepG2, 0.07 µM) was 51% and 56%.

Consider “RNA1{[moe](T)[sp].[moe](G)[sp].[moe](G)[sp].[moe](A)[sp].[moe](G)[sp].d(C)[sp].d(C)[sp].d(A)[sp].d(C)[sp].d(C)[sp].d(A)[sp].d(G)[sp].d(C)[sp].d(A)[sp].[moe](G)[sp].[moe](G)}$$$$V2.0”, for which, under “HepG2, 0.07 µM”, the target mRNA inhibition was 33% and 32%.

With “RNA1{[moe](T)[sp].[moe](G)[sp].d(A)[sp].d(A)[sp].d(G)[sp].d(C)[sp].d(G)[sp].d(A)[sp].d(A)[sp].d(G)[sp].d(T)[sp].[moe](G)[sp].[moe](C)[sp].[moe](A)[sp].[moe](C)[sp].[moe](A)[sp].[moe](C)}$$$$V2.0”, the target mRNA inhibition (HepG2, 0.07 µM) is 81% and 79%.

Take “RNA1{[moe](T)[sp].[moe](G)[sp].d(A)[sp].d(G)[sp].d(G)[sp].d(C)[sp].d(A)[sp].d(T)[sp].d(A)[sp].d(G)[sp].d(C)[sp].[moe](A)[sp].[moe](G)[sp].[moe](C)[sp].[moe](A)[sp].[moe](G)}$$$$V2.0”: the target mRNA inhibition (HepG2, 0.07 µM) was 59% and 52%.

Consider “RNA1{[moe](T)[sp].[moe](T)[sp].[moe](A)[sp].[moe](T)[sp].d(G)[sp].d(C)[sp].d(C)[sp].d(T)[sp].d(A)[sp].d(C)[sp].d(A)[sp].d(G)[sp].d(C)[sp].[moe](C)[sp].[moe](T)[sp].[moe](C)[sp].[moe](C)}$$$$V2.0”, for which the target mRNA inhibition (HepG2, 0.07 µM) is 52% and 34%.

Take “RNA1{[moe](T)[sp].[moe](T)[sp].[moe](A)[sp].[moe](T)[sp].d(G)[sp].d(C)[sp].d(C)[sp].d(T)[sp].d(A)[sp].d(C)[sp].d(A)[sp].d(G)[sp].d(C)[sp].[moe](C)[sp].[moe](T)[sp].[moe](C)}$$$$V2.0”: the target mRNA inhibition (HepG2, 0.07 µM) was 42% and 46%.

As for “RNA1{[moe](T)[sp].[moe](T)[sp].[moe](A)[sp].d(T)[sp].d(G)[sp].d(C)[sp].d(C)[sp].d(T)[sp].d(A)[sp].d(C)[sp].d(A)[sp].d(G)[sp].[moe](C)[sp].[moe](C)[sp].[moe](T)[sp].[moe](C)}$$$$V2.0”, the target mRNA inhibition (HepG2, 0.07 µM) is 51% and 41%.

Take “RNA1{[moe](T)[sp].[moe](T)[sp].[moe](C)[sp].[moe](C)[sp].[moe](G)[sp].[moe](C)[sp].d(A)[sp].d(G)[sp].d(T)[sp].d(A)[sp].d(T)[sp].d(G)[sp].d(G)[sp].d(A)[sp].d(T)[sp].[moe](C)[sp].[moe](G)}$$$$V2.0”: the target mRNA inhibition (HepG2, 0.07 µM) is 45% and 53%.

In the case of “RNA1{[moe](T)[sp].[moe](T)[sp].[moe](C)[sp].d(C)[sp].d(G)[sp].d(C)[sp].d(A)[sp].d(G)[sp].d(T)[sp].d(A)[sp].d(T)[sp].d(G)[sp].[moe](G)[sp].[moe](A)[sp].[moe](T)[sp].[moe](C)[sp].[moe](G)}$$$$V2.0”, for the setting “HepG2, 0.07 µM”, the target mRNA inhibition was 73% and 60%.

As for “RNA1{[moe](T)[sp].[moe](T)[sp].d(C)[sp].d(C)[sp].d(G)[sp].d(C)[sp].d(A)[sp].d(G)[sp].d(T)[sp].d(A)[sp].d(T)[sp].[moe](G)[sp].[moe](G)[sp].[moe](A)[sp].[moe](T)[sp].[moe](C)}$$$$V2.0”, the target mRNA inhibition (HepG2, 0.07 µM) is 62% and 50%.

Consider “RNA1{[moe](T)[sp].[moe](T)[sp].d(T)[sp].d(A)[sp].d(T)[sp].d(G)[sp].d(C)[sp].d(C)[sp].d(T)[sp].d(A)[sp].d(C)[sp].[moe](A)[sp].[moe](G)[sp].[moe](C)[sp].[moe](C)[sp].[moe](T)[sp].[moe](C)}$$$$V2.0”, for which, for the setting “HepG2, 0.07 µM”, the target mRNA inhibition was 64% and 54%.

As for “RNA1{d(C)[sp].d(C)[sp].d(A)[sp].d(A)[sp].d(A)[sp].d(G)[sp].d(C)[sp].d(C)[sp].d(A)[sp].d(C)[sp].d(C)[sp].d(C)[sp].d(A)[sp].d(A)[sp].d(G)[sp].d(G)}$$$$V2.0”, the target mRNA inhibition was 4% and 0% (HepG2, 0.01875 µM); 0% (HepG2, 0.0375 µM); 0% (HepG2, 0.075 µM); 3% and 0% (HepG2, 0.15 µM); 13% (HepG2, 0.3 µM).
